# According to patent US20210252011A1, “TREATMENT OF GLIOBLASTOMA WITH FASN INHIBITORS” (FORMA Therapeutics, Inc., priority 2017, published 2021):
# pIC50: −log10 of the molar value.
# Experiments:
# [1] = target: T1, FASN enzyme (Homo sapiens, UniProt P49327); experiment: Enzymatic assay for FASN inhibitors; assay type: biochemical; conditions: 40 nM FASN enzyme, 25° C.
# T1 construct: incubated with 10 μL of 40 nM FASN enzyme in assay buffer
# Procedure: Assays were performed in a 384-well black plate to measure the inhibition of FASN activity by individual compounds disclosed herein. An aliquot of 250 nL of compound was incubated with 10 μL of 40 nM FASN enzyme in assay buffer (50 mM HEPES (pH=7.3), 0.5 mM EDTA, 1 mM ascorbate, 100 mM sodium chloride and 0.04% TritonX-100) in each well at 25° C. for 60 minutes. After the plate was centrifuged briefly, 10 μL of substrate mix (20 μM acetyl-CoA, 60 μM malonyl-CoA, and 100 μM NADPH in assay buffer) was added to each well. The reaction was maintained at 25° C. for 90 minutes. The reaction was then quenched by adding 10 μL of 90 μM 7-diethylamino-3-(4′-maleimidylpheynyl)-4-methylcoumarin in 50/50 ethanol/water solution. The assay plate was incubated at 25° C. for 15 minutes and read on a plate reader with excitation and emission wavelengths at 360 nm and 530 nm, respectively. The IC50 of a given compound was calculated by fitting the dose response curve with a four-parameter logistic equation. Data shown below in Table B, where compounds having an activity designated as “A” provided an IC50<100 nm and compounds having an activity designated as “B” provided an IC50 of 100 nm-1.00 μM.
# [2] = Determination of brain exposure in Balb/c nude mice following oral administration; assay type: in vivo; conditions: 5 mg/kg oral gavage; for Brain (μM) at 2 h / Plasma (μM) at 2 h / [Brain]/[Plasma] at 2 h: 2 h post dose; for Brain (μM) at 8 h / Plasma (μM) at 8 h / [Brain]/[Plasma] at 8 h: 8 h post dose; for Brain (μM) at 2, 8 h (single value) / Plasma (μM) at 2, 8 h (single value) / Kp: one value given, time point (2 or 8 h) not stated; for Kp: mouse, brain/plasma, read-out: [Brain]/[Plasma] at 2, 8 h (single value)
# Procedure: Balb/c nude mice (body weight: 20-30 g; age range: approximately 6-8 weeks) were purchased from a qualified provider and acclimated for 5-7 days. The dosing formulation (dose: 5 mg/kg; concentration: 0.5 mg/mL; vehicle: PEG400:ethanol (v/v 9:1)) was prepared on the day of dosing and administered via oral gavage (dose volume: 10 mL/kg) to the mice (n=3 animals per time point). At the desired time point (2 or 8 h post dose) approximately 0.03 mL of blood sample was collected via venipuncture of peripheral veins into Heparin Na tubes and immediately placed on ice. After gently reverting the tube for approximately 10 seconds, the blood sample was centrifuged at 4,000×g for 5 minutes at 4° C. Supernatant was transferred into a micro-centrifuge tube and kept in a −80° C. freezer. Prior to brain collection, mice were fully exsanguinated via the following procedure: the chest cavity was opened, the ventricle was cut and a gentle iv saline flush (saline flush volume ˜20 mL) was performed with the animal placed head down at a 45 degree angle to facilitate blood removal. Brain samples were collected at the desired time point (2 or 8 h post dose), quick frozen in an ice box, and kept at −75±15° C. All brain samples were weighed and homogenated with buffer (brain weight (g) to PBS volume (mL) ratio of 1:4) before analysis. The actual concentration is the detected value multiplied by the dilution factor. For plasma sample analysis, plasma samples were quantified against a standard curve in plasma of Balb/c nude mice using an LC-MS/MS Method. For brain sample analysis, brain samples were quantified against a standard curve in brain homogenate of Balb/c nude mice using an LC-MS/MS Method. Each standard curve covered at least 6 calibration points including lower limit of quantification (LLOQ).
# T1 sequence (P49327 whole entry): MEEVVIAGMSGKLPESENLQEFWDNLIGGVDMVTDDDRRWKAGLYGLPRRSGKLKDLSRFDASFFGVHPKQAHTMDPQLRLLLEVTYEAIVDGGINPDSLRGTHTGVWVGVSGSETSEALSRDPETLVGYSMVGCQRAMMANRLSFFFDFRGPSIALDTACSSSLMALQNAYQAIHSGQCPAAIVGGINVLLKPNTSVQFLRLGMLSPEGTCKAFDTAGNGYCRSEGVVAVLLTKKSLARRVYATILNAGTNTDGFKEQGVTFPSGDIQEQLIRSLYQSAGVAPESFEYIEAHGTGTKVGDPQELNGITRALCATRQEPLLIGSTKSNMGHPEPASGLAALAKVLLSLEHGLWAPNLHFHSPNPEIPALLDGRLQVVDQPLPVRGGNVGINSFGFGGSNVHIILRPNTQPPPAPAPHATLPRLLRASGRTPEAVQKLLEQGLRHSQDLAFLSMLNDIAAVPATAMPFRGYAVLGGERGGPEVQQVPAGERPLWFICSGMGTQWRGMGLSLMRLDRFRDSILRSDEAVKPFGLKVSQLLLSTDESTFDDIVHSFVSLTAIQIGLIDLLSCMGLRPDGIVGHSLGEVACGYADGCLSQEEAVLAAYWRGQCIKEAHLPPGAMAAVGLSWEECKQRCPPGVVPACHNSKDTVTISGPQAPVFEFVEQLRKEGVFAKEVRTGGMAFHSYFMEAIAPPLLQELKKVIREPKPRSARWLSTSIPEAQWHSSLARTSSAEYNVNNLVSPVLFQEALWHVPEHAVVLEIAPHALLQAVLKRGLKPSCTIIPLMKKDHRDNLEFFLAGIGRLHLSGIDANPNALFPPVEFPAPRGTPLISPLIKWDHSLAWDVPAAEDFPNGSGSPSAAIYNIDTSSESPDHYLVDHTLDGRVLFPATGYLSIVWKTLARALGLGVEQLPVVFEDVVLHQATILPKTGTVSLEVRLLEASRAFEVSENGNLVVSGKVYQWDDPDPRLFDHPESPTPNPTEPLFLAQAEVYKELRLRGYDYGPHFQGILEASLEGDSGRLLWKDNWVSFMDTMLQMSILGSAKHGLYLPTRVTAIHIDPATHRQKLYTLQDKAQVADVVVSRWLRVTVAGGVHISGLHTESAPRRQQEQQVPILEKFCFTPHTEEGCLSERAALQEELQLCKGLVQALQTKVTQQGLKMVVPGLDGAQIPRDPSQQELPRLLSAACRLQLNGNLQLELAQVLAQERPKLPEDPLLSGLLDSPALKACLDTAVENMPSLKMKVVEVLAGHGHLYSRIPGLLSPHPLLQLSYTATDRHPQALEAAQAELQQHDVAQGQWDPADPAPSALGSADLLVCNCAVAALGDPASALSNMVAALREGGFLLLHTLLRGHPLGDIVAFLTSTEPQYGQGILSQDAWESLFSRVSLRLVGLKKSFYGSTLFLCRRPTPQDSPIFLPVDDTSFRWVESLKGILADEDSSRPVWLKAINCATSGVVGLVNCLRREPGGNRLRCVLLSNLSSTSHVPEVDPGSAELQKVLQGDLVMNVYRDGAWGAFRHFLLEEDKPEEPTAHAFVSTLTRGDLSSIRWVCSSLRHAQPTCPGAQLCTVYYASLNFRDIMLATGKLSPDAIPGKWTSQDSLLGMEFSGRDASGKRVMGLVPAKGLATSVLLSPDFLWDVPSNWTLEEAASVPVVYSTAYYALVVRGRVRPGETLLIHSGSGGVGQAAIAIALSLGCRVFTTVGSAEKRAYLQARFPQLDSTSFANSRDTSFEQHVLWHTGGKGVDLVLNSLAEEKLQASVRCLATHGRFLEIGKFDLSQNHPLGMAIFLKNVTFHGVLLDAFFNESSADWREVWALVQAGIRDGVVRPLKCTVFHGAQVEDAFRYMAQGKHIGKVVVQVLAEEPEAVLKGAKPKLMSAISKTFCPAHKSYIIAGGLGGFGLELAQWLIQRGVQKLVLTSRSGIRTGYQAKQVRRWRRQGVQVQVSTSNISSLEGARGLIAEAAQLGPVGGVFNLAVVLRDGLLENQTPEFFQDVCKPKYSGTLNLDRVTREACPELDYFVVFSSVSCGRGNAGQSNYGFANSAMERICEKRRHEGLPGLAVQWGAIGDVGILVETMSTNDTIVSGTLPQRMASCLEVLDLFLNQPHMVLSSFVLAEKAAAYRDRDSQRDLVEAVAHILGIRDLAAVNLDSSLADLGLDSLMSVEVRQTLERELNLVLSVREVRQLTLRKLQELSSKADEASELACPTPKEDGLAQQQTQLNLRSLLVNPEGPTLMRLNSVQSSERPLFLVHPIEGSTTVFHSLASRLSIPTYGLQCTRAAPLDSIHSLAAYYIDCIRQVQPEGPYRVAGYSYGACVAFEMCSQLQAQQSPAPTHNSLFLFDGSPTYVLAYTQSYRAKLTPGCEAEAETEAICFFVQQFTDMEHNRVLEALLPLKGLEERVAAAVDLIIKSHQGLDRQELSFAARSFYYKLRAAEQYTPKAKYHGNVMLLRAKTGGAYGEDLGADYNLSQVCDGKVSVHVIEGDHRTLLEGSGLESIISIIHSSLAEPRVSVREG
pIC50 [1],Brain (μM) at 2 h [2],Plasma (μM) at 2 h [2],[Brain]/[Plasma] at 2 h [2],Brain (μM) at 8 h [2],Plasma (μM) at 8 h [2],[Brain]/[Plasma] at 8 h [2],"Brain (μM) at 2, 8 h (single value) [2]","Plasma (μM) at 2, 8 h (single value) [2]",Kp [2],SMILES
6.00 to 7.00,1.3 µM,7.3 µM,0.18,0.40 µM,2.1 µM,0.20,,,,C[C@H]1CN(C(=O)c2ccc(-c3nc4ccc(F)cc4o3)cc2)CCN1C(=O)C1(O)CC1 [Compound 1]
> 7.00,0.3 µM,1.4 µM,0.20,0.01 µM,0.06 µM,0.21,,,,C[C@@H]1CN(C(=O)c2ccc(-c3nc4ccc(F)cc4o3)cc2)C[C@H](C)N1C(=O)C1(O)CC1 [Compound 2]
6.00 to 7.00,1.8 µM,7.8 µM,0.23,0.89 µM,3.3 µM,0.27,,,,O=C(c1ccc(-c2nc3ccc(F)cc3o2)cc1)N1CCN(C(=O)C2(O)CC2)CC1 [Compound 3]
> 7.00,1.6 µM,10.6 µM,0.15,0.17 µM,1.1 µM,0.16,,,,C[C@H]1CN(C(=O)c2ccc(-c3nc4ccc(F)cc4o3)cc2F)CCN1C(=O)C1(O)CC1 [Compound 4]
6.00 to 7.00,1.4 µM,8.4 µM,0.17,0.62 µM,3.3 µM,0.19,,,,O=C(c1ccc(-c2nc3ccc(F)cc3o2)cc1F)N1CCN(C(=O)C2(O)CC2)CC1 [Compound 5]
6.00 to 7.00,,,,,,,0.042 µM,0.396 µM,0.105,O=C(c1ccc(-c2nc3ccc(F)cc3o2)cc1F)N1CCN(C(=O)[C@H]2CCCO2)CC1 [Compound 6]
6.00 to 7.00,,,,,,,0.013 µM,0.238 µM,0.05,C[C@H]1CN(C(=O)c2ccc(-c3nc4ccc(F)cc4o3)cc2F)CCN1C(=O)C1(N)CC1 [Compound 7]
6.00 to 7.00,,,,,,,0.038 µM,0.309 µM,0.12,C[C@@H]1CN(C(=O)c2ccc(-c3nc4ccc(F)cc4o3)cc2)C[C@H](C)N1C(=O)C1(N)CC1 [Compound 8]
> 7.00,0.03 µM,5.2 µM,0.006,0.007 µM,0.6 µM,0.012,,,,Cn1cnc2cc(-c3ccc(C(=O)N4CCN(C(=O)C5(O)CC5)CC4)c(F)c3)ccc21 [Compound 9]
> 7.00,0.04 µM,4.4 µM,0.007,0.004 µM,1.0 µM,0.004,,,,C[C@H]1CN(C(=O)c2ccc(-c3ccc4c(c3)ncn4C)cc2F)CCN1C(=O)C1(O)CC1 [Compound 10]
> 7.00,0.02 µM,4.4 µM,0.005,0.0 µM,0.6 µM,0.000,,,,C[C@H]1CN(C(=O)c2ccc(-c3ccc4c(c3)ncn4C)cc2)CCN1C(=O)C1(O)CC1 [Compound 11]
6.00 to 7.00,0.02 µM,1.5 µM,0.014,0.0 µM,0.2 µM,0.000,,,,Cn1cnc2cc(-c3ccc(C(=O)N4CCN(C(=O)C5(O)CC5)CC4)cc3)ccc21 [Compound 12]
> 7.00,0.28 µM,5.8 µM,0.05,0.12 µM,3.1 µM,0.04,,,,Cn1cc(-c2ccc(-c3ccc(C(=O)N4CCN(C(=O)C5(O)CC5)CC4)cc3)cc2)cn1 [Compound 13]
